Measurements: patent publication US12338237B2, “Derivatives having 1,2,3,4-tetrahydronaphthalene moiety or pharmaceutically acceptable salt thereof and pharmaceutical compositions comprising the same” (YUHAN CORPORATION, priority 2019, dated 2025)
Where two headings read alike, the source gives them in different places.

Tests used:
[1] = molecular target: glucosylceramide synthase (GCS) (Homo sapiens (Human), UniProt Q16739); experiment: Evaluation of inhibitory activities against GCS (enzyme reaction with A549 cell lysate, NBD C6-ceramide, HPLC fluorescence); assay type: biochemical; settings: GCS activity in A549 cell lysate, 37° C. for 90 minutes
Sequence of glucosylceramide synthase (GCS) (Q16739 whole entry, looked up): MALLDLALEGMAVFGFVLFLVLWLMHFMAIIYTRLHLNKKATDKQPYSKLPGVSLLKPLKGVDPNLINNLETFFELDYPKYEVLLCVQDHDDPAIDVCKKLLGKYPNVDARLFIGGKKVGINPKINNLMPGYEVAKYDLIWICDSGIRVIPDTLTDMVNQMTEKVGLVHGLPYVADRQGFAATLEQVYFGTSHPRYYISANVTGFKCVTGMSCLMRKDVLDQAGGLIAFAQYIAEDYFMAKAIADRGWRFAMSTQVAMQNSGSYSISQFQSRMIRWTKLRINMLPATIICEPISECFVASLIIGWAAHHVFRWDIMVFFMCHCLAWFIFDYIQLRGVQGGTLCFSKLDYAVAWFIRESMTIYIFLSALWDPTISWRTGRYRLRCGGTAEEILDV
Experimental: Ibiglustat, known as a GCS inhibitor, was used as a control.
After the cells attached to the culture dish were washed with phosphate buffered saline (PBS), the cells were scraped off with a cell scraper and then centrifuged (4000 rpm, 3 min, 4° C.) to collect the cells in a 50 ml tube. The cell pellets were suspended in a lysis buffer (50 mM HEPES, pH 7.3, containing 1× the protease/phosphatase inhibitor cocktail), lysed by sonication, and then the lysate was centrifuged (13000 rpm, 10 min, 4° C.). The obtained supernatant was used for the quantitative analysis of proteins. The amount of proteins was measured using the BCA protein assay kit, using bovine serum albumin as a standard.
Enzymatic reactions were initiated by sequentially adding the following reaction materials to a 96 deep-well plate. Thereafter, the enzymatic reactions were performed at 37° C. for 90 minutes.
The enzymatic reactions were stopped by adding 100 μl of chloroform/methanol (2:1, v/v). After vortexing for 15 seconds, each mixture was centrifuged (4000 rpm, 10 min, 18° C.). The lower layer (50 μl) was transferred to a new 96 deep-well plate and dried with a reduced concentrator.
Data analysis was performed by the following equations. % Area (Sample)=Area (GlcCer)/[Area (Cer)+Area (GlcCer)]×100 % GCS activity=[Area(Sample)−Area(ibiglustat)]/[Area(DMSO)−Area(ibiglustat)]×100

GM1 production = experiment: cells; assay type: cell-based

| Compound | IC50 [1] | IC50 (GM1 production; Homo sapiens, Jurkat, 72 h) | IC50 (GM1 production; read-out: IC50) |
| --- | --- | --- | --- |
| O=C(NC1c2cc(-c3cccc(C(F)(F)F)c3)ccc2CCC12CC2)O[C@@H]1CN2CCC1CC2 (stereo partly drawn) [Example 177, (S)-quinuclidin-3-yl (7′-(3-(trifluoromethyl)phenyl)-3′,4′-dihydro-1′H-spiro[cyclopropane-1,2′-naphthalen]-1′-yl)carbamate] | 0.0235 µM | 0.17 µM | – |
| CCCOc1c(C)cc(-c2cc3c(cc2OC)C(NC(=O)O[C@@H]2CN4CCC2CC4)C(C)(C)CC3)cc1C (stereo partly drawn) [Example 234, (S)-quinuclidin-3-yl (6-(3,5-dimethyl-4-propoxyphenyl)-7-methoxy-2,2-dimethyl-1,2,3,4-tetrahydronaphthalen-1-yl)carbamate] | 0.00145 µM | 0.0149 µM | – |
| COCOc1ccccc1-c1ccc2c(c1)C(NC(=O)O[C@@H]1CN3CCC1CC3)C(C)(C)CC2 (stereo partly drawn) [Example 170, (S)-quinuclidin-3-yl (7-(2-(methoxymethoxy)phenyl)-2,2-dimethyl-1,2,3,4-tetrahydronaphthalen-1-yl)carbamate] | 0.00941 µM | 0.039 µM | – |
| COc1ccc(OC)c(-c2ccc3c(c2)CCC2(CC2)C3NC(=O)O[C@@H]2CN3CCC2CC3)c1 (stereo partly drawn) [Example 211, (S)-quinuclidin-3-yl (6′-(2,5-dimethoxyphenyl)-3′,4′-dihydro-1′H-spiro[cyclopropane-1,2′-naphthalen]-1′-yl)carbamate] | 0.0276 µM | 0.147 µM | – |
| O=C(NC1c2ccc(-c3ccc(OC(F)(F)F)cc3)cc2CCC12CC2)O[C@@H]1CN2CCC1CC2 (stereo partly drawn) [Example 189, (S)-quinuclidin-3-yl (6′-(4-(trifluoromethoxy)phenyl)-3′,4′-dihydro-1′H-spiro[cyclopropane-1,2′-naphthalen]-1′-yl)carbamate] | 0.0189 µM | 0.0251 µM | – |
| CC1(C)CCc2cc(-c3cccc(F)c3F)ccc2C1NC(=O)O[C@@H]1CN2CCC1CC2 (stereo partly drawn) [Example 102, (S)-quinuclidin-3-yl (6-(2,3-difluorophenyl)-2,2-dimethyl-1,2,3,4-tetrahydronaphthalen-1-yl)carbamate] | – | – | 0.00143 µM |
| O=C(NC1CCCc2ccc(-c3ccc(F)c(F)c3)cc21)O[C@@H]1CN2CCC1CC2 (stereo partly drawn) [Example 64, (S)-quinuclidin-3-yl (7-(3,4-difluorophenyl)-1,2,3,4-tetrahydronaphthalen-1-yl)carbamate] | 0.013 µM | 0.131 µM | – |
| CCCOc1c(C)cc(-c2ccc3c(c2)CCC(C)(C)C3NC(=O)O[C@@H]2CN3CCC2CC3)cc1C (stereo partly drawn) [Example 146, (S)-quinuclidin-3-yl (6-(3,5-dimethyl-4-propoxyphenyl)-2,2-dimethyl-1,2,3,4-tetrahydronaphthalen-1-yl) carbamate] | 0.0018 µM | – | 0.0008 µM |
| CC(C)(C)Oc1cc(-c2cc3c(cc2F)C(NC(=O)O[C@@H]2CN4CCC2CC4)C(C)(C)CC3)ccn1 (some centres unmarked) [Example 231] | 0.00086 µM | – | 0.0038 µM |
| COCOc1ccc(-c2ccc3c(c2)C(NC(=O)O[C@@H]2CN4CCC2CC4)C(C)(C)CC3)cc1 (stereo partly drawn) [Example 168, (S)-quinuclidin-3-yl (7-(4-(methoxymethoxy)phenyl)-2,2-dimethyl-1,2,3,4-tetrahydronaphthalen-1-yl)carbamate] | 0.0179 µM | 0.0707 µM | – |
| CC(C)(C)c1ccc(-c2ccc3c(c2)CCC2(CC2)C3NC(=O)O[C@@H]2CN3CCC2CC3)cc1 (stereo partly drawn) [Example 225, (S)-quinuclidin-3-yl (6′-(4-(tert-butyl)phenyl)-3′,4′-dihydro-1′H-spiro[cyclopropane-1,2′-naphthalen]-1′-yl)carbamate] | 0.00655 µM | 0.0224 µM | – |
| CCCc1ccc(-c2ccc3c(c2)CCCC3NC(=O)O[C@@H]2CN3CCC2CC3)cc1 (stereo partly drawn) [Example 32, (S)-quinuclidin-3-yl (6-(4-propylphenyl)-1,2,3,4-tetrahydronaphthalen-1-yl)carbamate] | 0.00831 µM | 0.475 µM | – |
| CC1(C)CCc2cc(-c3ccc(C(F)(F)F)cc3)ccc2C1NC(=O)O[C@@H]1CN2CCC1CC2 (stereo partly drawn) [Example 88, (S)-quinuclidin-3-yl (2,2-dimethyl-6-(4-(trifluoromethyl)phenyl)-1,2,3,4-tetrahydronaphthalen-1-yl)carbamate] | 0.0035 µM | 0.0113 µM | – |
| COCOc1cccc(-c2ccc3c(c2)CCC(C)(C)C3NC(=O)O[C@@H]2CN3CCC2CC3)c1 (stereo partly drawn) [Example 114, (S)-quinuclidin-3-yl (6-(3-(methoxymethoxy)phenyl)-2,2-dimethyl-1,2,3,4-tetrahydronaphthalen-1-yl)carbamate] | 0.0018 µM | 0.00127 µM | – |
| COc1cccc(-c2ccc3c(c2)CCCC3NC(=O)O[C@@H]2CN3CCC2CC3)c1 (stereo partly drawn) [Example 47, (S)-quinuclidin-3-yl (6-(3-methoxyphenyl)-1,2,3,4-tetrahydronaphthalen-1-yl)carbamate] | 0.00252 µM | 0.433 µM | – |
| CC1(C)CCc2ccc(-c3ccc(OC(F)F)cc3)cc2C1NC(=O)O[C@@H]1CN2CCC1CC2 (stereo partly drawn) [Example 164, (S)-quinuclidin-3-yl (7-(4-(difluoromethoxy)phenyl)-2,2-dimethyl-1,2,3,4-tetrahydronaphthalen-1-yl)carbamate] | 0.00923 µM | 0.0261 µM | – |
| COCOc1cccc(-c2ccc3c(c2)C(NC(=O)O[C@@H]2CN4CCC2CC4)C(C)(C)CC3)c1 (stereo partly drawn) [Example 169, (S)-quinuclidin-3-yl (7-(3-(methoxymethoxy)phenyl)-2,2-dimethyl-1,2,3,4-tetrahydronaphthalen-1-yl)carbamate] | 0.0409 µM | 0.443 µM | – |
| O=C(NC1c2ccc(-c3cccc(Cl)c3)cc2CCC12CC2)O[C@@H]1CN2CCC1CC2 (stereo partly drawn) [Example 191, (S)-quinuclidin-3-yl (6′-(3-chlorophenyl)-3′,4′-dihydro-1′H-spiro[cyclopropane-1,2′-naphthalen]-1′-yl)carbamate] | 0.0099 µM | 0.0144 µM | – |
| COc1cc(OC)cc(-c2ccc3c(c2)CCC2(CC2)C3NC(=O)O[C@@H]2CN3CCC2CC3)c1 (stereo partly drawn) [Example 214, (S)-quinuclidin-3-yl (6′-(3,5-dimethoxyphenyl)-3′,4′-dihydro-1′H-spiro[cyclopropane-1,2′-naphthalen]-1′-yl)carbamate] | 0.0326 µM | 0.0623 µM | – |
| CC1(C)CCc2cc(-c3cccc(F)c3)ccc2C1NC(=O)O[C@@H]1CN2CCC1CC2 (stereo partly drawn) [Example 90, (S)-quinuclidin-3-yl (6-(3-fluorophenyl)-2,2-dimethyl-1,2,3,4-tetrahydronaphthalen-1-yl)carbamate] | 0.00101 µM | 0.00489 µM | – |
| CCc1cccc(-c2ccc3c(c2)CCC2(CC2)C3NC(=O)O[C@@H]2CN3CCC2CC3)c1 (stereo partly drawn) [Example 203, (S)-quinuclidin-3-yl (6′-(3-ethylphenyl)-3′,4′-dihydro-1′H-spiro[cyclopropane-1,2′-naphthalen]-1′-yl)carbamate] | 0.0135 µM | 0.035 µM | – |
| COCOc1ccccc1-c1ccc2c(c1)CCC1(CC1)C2NC(=O)O[C@@H]1CN2CCC1CC2 (stereo partly drawn) [Example 199, (S)-quinuclidin-3-yl (6′-(2-(methoxymethoxy)phenyl)-3′,4′-dihydro-1′H-spiro[cyclopropane-1,2′-naphthalen]-1′-yl)carbamate] | 0.00724 µM | 0.00763 µM | – |
| COc1ccc(-c2ccc3c(c2)CCC2(CC2)C3NC(=O)O[C@@H]2CN3CCC2CC3)c(OC)c1 (stereo partly drawn) [Example 210, (S)-quinuclidin-3-yl (6′-(2,4-dimethoxyphenyl)-3′,4′-dihydro-1′H-spiro[cyclopropane-1,2′-naphthalen]-1′-yl)carbamate] | 0.0236 µM | 0.0442 µM | – |
| O=C(NC1CCCc2cc(-c3ccc(Cl)c(Cl)c3)ccc21)O[C@@H]1CN2CCC1CC2 (stereo partly drawn) [Example 22, (S)-quinuclidin-3-yl (6-(3,4-dichlorophenyl)-1,2,3,4-tetrahydronaphthalen-1-yl)carbamate] | 0.00842 µM | 0.0225 µM | – |
| O=C(NC1c2ccc(-c3cccc(F)c3)cc2CCC12CC2)O[C@@H]1CN2CCC1CC2 (stereo partly drawn) [Example 190, (S)-quinuclidin-3-yl (6′-(3-fluorophenyl)-3′,4′-dihydro-1′H-spiro[cyclopropane-1,2′-naphthalen]-1′-yl)carbamate] | 0.0119 µM | 0.0199 µM | – |
| O=C(NC1CCCc2cc(-c3cc(Cl)ccc3Cl)ccc21)O[C@@H]1CN2CCC1CC2 (stereo partly drawn) [Example 23, (S)-quinuclidin-3-yl (6-(2,5-dichlorophenyl)-1,2,3,4-tetrahydronaphthalen-1-yl)carbamate] | 0.0018 µM | 0.0277 µM | – |
| CC1(C)CCc2ccc(-c3cccc(C(F)(F)F)c3)cc2C1NC(=O)O[C@@H]1CN2CCC1CC2 (stereo partly drawn) [Example 157, (S)-quinuclidin-3-yl (2,2-dimethyl-7-(3-(trifluoromethyl)phenyl)-1,2,3,4-tetrahydronaphthalen-1-yl)carbamate] | 0.0322 µM | 0.12 µM | – |
| CCCOc1ccc(-c2ccc3c(c2)CCC(C)(C)C3NC(=O)O[C@@H]2CN3CCC2CC3)cc1Cl (stereo partly drawn) [Example 141, (S)-quinuclidin-3-yl (6-(3-chloro-4-propoxyphenyl)-2,2-dimethyl-1,2,3,4-tetrahydronaphthalen-1-yl)carbamate] | 0.00151 µM | 0.0011 µM | – |
| O=C(NC1CCCc2ccc(-c3cccc(C(F)(F)F)c3)cc21)O[C@@H]1CN2CCC1CC2 (stereo partly drawn) [Example 60, (S)-quinuclidin-3-yl (7-(3-(trifluoromethyl)phenyl)-1,2,3,4-tetrahydronaphthalen-1-yl)carbamate] | 0.106 µM | – | – |
